Assay results taken from paper PMC11317440, “Soloxolone para-methylanilide effectively suppresses aggressive phenotype of glioblastoma cells including TGF-β1-induced glial-mesenchymal transition in vitro and inhibits growth of U87 glioblastoma xenografts in mice” (Frontiers in Pharmacology, 2024).

What was measured:
U87 cells [1] = test: MTT assay 72 h, 7 and TMZ alone and combined, synergy (HSA), U87; type: cell-based, human
Protocol: (§1) The drug synergy score was calculated for the dose-response matrix according to the highest single-agent (HSA) model using the SynergyFinder + web application (https://www.synergyfinder.org/).

U118 cells = test: MTT assay 72 h, 7 and TMZ alone and combined, synergy (HSA), U118; type: cell-based, human
Protocol: as §1

EPNT-5 cells = test: MTT assay 72 h, 7 and TMZ alone and combined, synergy (HSA), EPNT-5; type: cell-based, mouse; settings: MTT
Protocol: as §1

[2] = tested on: ROS production in U87 cells; test: Intracellular ROS (DCFDA staining, flow cytometry), U87; type: cell-based, human; settings: U87, TMZ 125 μM, 7 100 nM, NAC 2 mM, 72 h
Protocol: Intracellular ROS levels were measured according to previously published studies ([Han et al., 2008]; [Samandari-Bahraseman et al., 2023]; [Kopsida et al., 2024]), using the DCFDA/H2DCFDA Cellular ROS Assay Kit (Abcam, Cambridge, United Kingdom). U87 cells were incubated with 7 and TMZ with or without NAC for 72 h (n = 3). Cells were then washed with PBS and incubated with 20 µM H2DCFDA for 30 min under standard conditions, followed by the removal of H2DCFDA-containing medium and double washing with PBS.
(§2) After staining, 10,000 cells per sample were analyzed on a NovoCyte flow cytometer using NovoExpress software (ACEA Biosciences, Inc., USA).

U87 cells [3] = test: Annexin V-FITC/propidium iodide flow cytometry, U87, 72 h, TMZ/7/NAC; type: cell-based, human; settings: U87, TMZ 500 μM, 7 600 nM
Protocol: […] To quantify the total proportion of apoptotic cells in control and experimental groups, the events accumulated in the lower right quadrant (early apoptosis) and upper right quadrant (late apoptosis) were summarized.
as §2

[4] = tested on: U87 glioblastoma xenograft; test: U87 glioblastoma xenograft model; type: in vivo, athymic nude mice; settings: end of the experiment (day 19); 7 20 mg/kg i.p., TMZ 10 mg/kg i.p.
Protocol: A xenograft model of tumor progression was induced by subcutaneous (s.c.) implantation of U87 glioblastoma cells (2×10^7 cells/mL) suspended in 0.1 mL of saline buffer into the left flank of athymic nude mice. On day 4 after tumor transplantation, the mice were divided into four groups: (1) mice received intraperitoneal (i.p.) injections of 10% Tween-80 (vehicle) (n = 6); (2) mice received i.p. injections of compound 7 in 10% Tween-80 at a dose of 20 mg/kg (n = 5); (3) mice received i.p. injections of TMZ in saline buffer at a dose of 10 mg/kg (n = 5); (4) mice received combination therapy of compound 7 and TMZ at the same dosage and administration route (n = 6). Compound 7 was administered three times per week; in total seven injections were performed. TMZ was administered daily except weekends; in total eleven injections were performed. During the experiment, the tumor volumes were determined three times per week using caliper measurements and were calculated as V = (D × d^2)/2, where D is the longest diameter of the tumor node and d is the shortest diameter of the tumor node perpendicular to D. Mice were sacrificed on day 19 after tumor transplantation and material (tumor nodes, livers, and kidneys) was collected for subsequent analysis.

[5] = Toxicity assessment in U87 glioblastoma-bearing mice; type: in vivo, athymic nude mice; settings: 7 20 mg/kg i.p. or TMZ 10 mg/kg i.p. injected alone
Protocol: During the experiment, the general status and body weight of the animals were monitored. At the end of the experiment, livers and kidneys were collected and organ indices were calculated as (organ weight/body weight) × 100%, followed by the normalization of organ indices of experimental mice to organ indices of control mice.

[6] = tested on: U87 glioblastoma tumor tissue; test: Histology and immunohistochemistry of U87 xenograft tumors; type: in vivo, athymic nude mice; settings: day 19
Protocol: For the histological study, the tumor specimens were fixed in 10% neutral-buffered formalin (BioVitrum, Moscow, Russia), dehydrated in ascending ethanols and xylols and embedded in HISTOMIX paraffin (BioVitrum, Russia). The paraffin sections (3–4 µm) were sliced on a Microm HM 355S microtome (Thermo Fisher Scientific, Waltham, MA, USA) and stained with hematoxylin and eosin.
For the immunohistochemical study, the tumor sections were deparaffinized and rehydrated. Antigen retrieval was carried out after exposure in a microwave oven at 700 W. The samples were incubated with anti-Ki-67 (ab16667, Abcam, Boston, MA, USA) (n = 3), anti-GFAP (ab194325, Abcam, USA) (n = 3), and anti-N-cadherin (ab76011, Abcam, USA) (n = 3) primary antibodies according to the manufacturer’s protocol. Then, the sections were incubated with secondary horseradish peroxidase (HPR)-conjugated antibodies, exposed to the 3,30-diaminobenzidine (DAB) substrate (Rabbit Specific HRP/DAB (ABC) Detection IHC Kit, ab64261, Abcam, USA) and stained with Mayer’s hematoxylin.
Five to ten random fields were examined from the tumor specimens of three mice in each group, for a total of 15–30 test fields.

U87 glioblastoma cells = test: MTT cell viability assay, U87 cells, 48 h; type: cell-based, human; settings: for relative cytotoxicity: 48 h of incubation, U87; for MNTC: Homo sapiens, U-87 MG, 48 h, read-out: non-toxic concentration that reduced U87 cell viability by less than 10%
Protocol: Cells were seeded in quadruplicate in 96-well plates at 10,000 cells/well and allowed to adhere overnight. The medium was then replaced with serum-free DMEM containing increasing concentrations of soloxolone amides for 48 h. After incubation, 3-(4,5-dimethylthiazol-2-yl)-2,5-diphenyltetrazolium bromide (MTT dye) was added at a final concentration of 0.5 mg/mL and left for 2 h. The resulting formazan crystals were dissolved in DMSO and the optical density was measured at 570 nm using a Multiscan RC plate reader (Thermo LabSystems, Helsinki, Finland).

TGF-β1-treated U87 cells = test: Adhesion of U87 cells to culture plastic (TrypLE treatment assay); type: cell-based, human; settings: TGF-β1 50 ng/mL, non-toxic concentrations, 48 h
Protocol: Adhesiveness of glioblastoma cells was assessed by two independent methods. First, cell adhesion to culture plastic was tested using a trypsin treatment assay, as previously described ([Sava et al., 2004]; [Mazuryk et al., 2015]; [van Dijk et al., 2017]). Briefly, U87 and U118 cells (10,000 cells per well of a 96-well plate, n = 4) were cultured with TGF-β1 (50 ng/mL) and non-toxic concentrations of soloxolone amides for 48 h and then treated with a 1:20 dilution of TrypLE Express (Gibco, USA) in PBS for 3 min at 37°C. Non-adherent cells were then removed by a triple PBS wash, and the remaining adherent cells were fixed with 4% formaldehyde and stained with crystal violet dye (0.1% w/v). Images were captured using the iBright 1,500 Imaging System (Invitrogen, USA), and the cell-occupied area was calculated using ImageJ. Alternatively, the number of adherent cells was quantified using the MTT assay.

TGF-β1-induced U87 cells = test: Cell morphology (cell size) of TGF-β1-induced U87 cells; type: cell-based, human; settings: TGF-β1 50 ng/mL, non-toxic concentrations, 48 h
Protocol: After seeding at a concentration of 5,000 cells/well in triplicate in 96-well plates and incubating overnight, U87 and U118 cells were exposed to TGF-β1 (50 ng/mL) and non-toxic concentrations of soloxolone amides for 48 h. An EVOS XL Core microscope with an integrated CMOS camera (Thermo Fisher Scientific, USA) was then used to examine cell morphology at ×20 magnification. Aspect ratio (AR) and area were quantified for at least 150 cells in each experimental group using ImageJ software (NIH, USA).

U87 primary tumorspheres = tested on: U87 primary tumorspheres; set-up: method as in Markov et al., 2023; settings: ref Markov et al., 2023; cited from earlier work
[7] = tested on: U87 glioblastoma xenograft; set-up: method as in Markov et al., 2022a; settings: 9 administered at a similar dose and schedule; ref Markov et al., 2022a; cited from earlier work

For `Cn1nnc2c(C(N)=O)ncn2c1=O` [TMZ, temozolomide, reference compound], the IC50 (U87 cells [1]; MTT) was 213 µM, the “reduction of the cytotoxic effect by NAC” value (U87 cells [1]; U87, NAC 2 mM, TMZ 125 μM, 7 100 nM) was 22.3% and the IC50 (U118 cells; MTT) was > 500 µM. For the same compound, the “reduction of the cytotoxic effect by NAC” value (U118 cells; U118, NAC 2 mM, TMZ 125 μM, 7 100 nM) was 32.5%, the IC50 (EPNT-5 cells) was > 500 µM and the “ROS accumulation (in words)” value [2] was “did not increase ROS accumulation”. For the same compound, the “cells in the right quadrants (apoptosis)” value (U87 cells [3]) was 9%, the “reduction in tumor weight compared to the vehicle” value [4] was 21.9 fold and the “toxic effects (body weight and organ indices)” value [5] was “no toxic effects”. The “N-cadherin and GFAP levels in tumor sections (immunohistochemistry)” value [6] was “significantly reduced their levels” and the “reduction in the numerical density of Ki-67-positive cells compared to vehicle” value [6] was 9 fold.
For `CC1(C)C(=O)C(C#N)=C[C@]2(C)C3=CC(=O)[C@@H]4[C@@H]5C[C@@](C)(C(=O)NCCCCCO)CC[C@]5(C)CC[C@@]4(C)[C@]3(C)CCC12` (stereo partly drawn) [compound 2, N-(5′-hydroxypentyl)-2-cyano-3,12-dioxo-18βH-olean-9(11),1(2)-dien-30-amide], the relative cytotoxicity (U87 glioblastoma cells) was “moderate” and the MNTC (U87 glioblastoma cells) was 100 nM.
In the case of `CN(C)CCNC(=O)[C@@]1(C)CC[C@]2(C)CC[C@]3(C)[C@H](C(=O)C=C4[C@@]5(C)C=C(C#N)C(=O)C(C)(C)C5CC[C@]43C)[C@@H]2C1` (stereo partly drawn) [compound 3, N-(2′-(dimethylamino)ethyl)-2-cyano-3,12-dioxo-18βH-olean-9(11),1(2)-dien-30-amide], the relative cytotoxicity (U87 glioblastoma cells) is reported as “low”, the MNTC (U87 glioblastoma cells) is reported as 300 nM and the “adhesion of TGF-β1-treated U87 cells to culture plastic (crystal violet)” value (TGF-β1-treated U87 cells) is reported as “restoring it to control levels”.
In the case of `CN(C)CCCNC(=O)[C@@]1(C)CC[C@]2(C)CC[C@]3(C)[C@H](C(=O)C=C4[C@@]5(C)C=C(C#N)C(=O)C(C)(C)C5CC[C@]43C)[C@@H]2C1` (stereo partly drawn) [compound 4, N-(3′-(dimethylamino)propyl)-2-cyano-3,12-dioxo-18βH-olean-9(11),1(2)-dien-30-amide], the relative cytotoxicity (U87 glioblastoma cells) is reported as “low” and the MNTC (U87 glioblastoma cells) is reported as 300 nM.
In the case of `CC1(C)C(=O)C(C#N)=C[C@]2(C)C3=CC(=O)[C@@H]4[C@@H]5C[C@@](C)(C(=O)Nc6ccc(Br)cc6)CC[C@]5(C)CC[C@@]4(C)[C@]3(C)CCC12` (stereo partly drawn) [compound 5, N-(4′-bromophenyl)-2-cyano-3,12-dioxo-18βH-olean-9(11),1(2)-dien-30-amide], the relative cytotoxicity (U87 glioblastoma cells) is reported as “high”, the MNTC (U87 glioblastoma cells) is reported as 50 nM and the “effect on size/morphology of TGF-β1-induced U87 cells” value (TGF-β1-induced U87 cells) is reported as “restored their morphological characteristics to the control cells”.
In the case of `CC1(C)C(=O)C(C#N)=C[C@]2(C)C3=CC(=O)[C@@H]4[C@@H]5C[C@@](C)(C(=O)Nc6cccnc6)CC[C@]5(C)CC[C@@]4(C)[C@]3(C)CCC12` (stereo partly drawn) [compound 6, N-(pyridin-3-yl)-2-cyano-3,12-dioxo-18βH-olean-9(11),1(2)-dien-30-amide], the relative cytotoxicity (U87 glioblastoma cells) is reported as “moderate” and the MNTC (U87 glioblastoma cells) is reported as 100 nM.
With `CC(C)(C)c1cc(CCCNC(=O)[C@@]2(C)CC[C@]3(C)CC[C@]4(C)[C@H](C(=O)C=C5[C@@]6(C)C=C(C#N)C(=O)C(C)(C)C6CC[C@]54C)[C@@H]3C2)cc(C(C)(C)C)c1O` (stereo partly drawn) [compound 8, N-(3′-(3″,5″-di-tert-butyl-4″-hydroxyphenyl)propyl)-2-cyano-3,12-dioxo-18βH-olean-9(11),1(2)-dien-30-amide] the relative cytotoxicity (U87 glioblastoma cells) was “high” and the MNTC (U87 glioblastoma cells) was 50 nM.
For `CC1(C)C(=O)C(C#N)=C[C@]2(C)C3=CC(=O)[C@@H]4[C@@H]5C[C@@](C)(C(=O)NCCc6c[nH]c7ccccc67)CC[C@]5(C)CC[C@@]4(C)[C@]3(C)CCC12` (stereo partly drawn) [compound 9], the relative cytotoxicity (U87 glioblastoma cells) was “moderate”, the MNTC (U87 glioblastoma cells) was 100 nM and the “effect on size/morphology of TGF-β1-induced U87 cells” value (TGF-β1-induced U87 cells) was “restored their morphological characteristics to the control cells”. For the same compound, the “concentration causing a large-scale reduction of spheroids” value (U87 primary tumorspheres) was 4 µM and the “reduction in tumor weight compared to the vehicle-treated group” value [7] was 3.4 fold.
